Source: patent US4186184A, “Selective administration of drug with ocular therapeutic system” (priority 1979, dated 1980)
One block for each molecule: values may come before it.

Key:
[1] = in vivo
Method: Ocular dispensing system of elliptical shape for administering a drug to the tissue compartments of the eye over a prolonged period of time and having a length of 4 to 20 millimeters, a width of 1 to 15 millimeters and a thickness of 0.1 to 4 millimeters are prepared by mixing liquid polydimethylsiloxane, chloramphenicol and stannous octate and curing the mixture at room temperature. The resulting matrix is placed in a pre-shaped and sized ethylene-vinyl acetate copolymer tube and the opened end adhesively sealed to provide a solid matrix containing drug. Then, 90% of the exposed surface of the copolymer is surrounded with cross-linked drug impermeable polyamide.

[2] = Drug release rate through system membranes (Example 8); assay type: physicochemical; settings: area 1 cm^2, membranes 2 mils thick
Method: Following the procedure set forth in Example 1, an ocular drug delivery system shaped like a circle 6 mm by 2.5 mm is prepared according to the described procedure except one of the membrane is formed from commercially available laminate of cellulose acetate and nylon-66 that is substantially impermeable to the passage of hydrocortisone alcohol in the reservoir of the system. The area of the system is 1 cm^2, and the membranes are 2 mils thick. The drug release rate for the ethylene-vinyl acetate copolymer film which is permeable to the steroid is about 40 micrograms per hour, and the release rate for the laminate cellulose acetate nylon is about 1 to 2 micrograms per hour.

[3] = rabbit, in vivo
[4] = Release of drug from osmotic ocular therapeutic system in simulated ocular aqueous environment (UV, 215 nm); assay type: physicochemical
Method: A drug delivery system for the prolonged release of pilocarpine nitrate to the internal part of the eye is prepared and tested in the following manner: first, a reservoir formed of a drug and a polymer in intimate mixture is prepared according to the described procedure. A 7 gram portion of micronized pilocarpine nitrate is admixed with 3 grams of an ethylene-vinyl acetate copolymer having a vinyl acetate content of about 40% and having a melt index of […], as measured by ASTM D 1238-modified test. The copolymer has a tensile strength of about 600-700 psi and an elongation at break of 1400% to 1500%. It is impermeable to pilocarpine nitrate but permeable to water. […] The pilocarpine nitrate micronized particles are on average ~40 microns in diameter. The mixture is heated to 120° C. and cast as a 0.6 mm thick film. Next, a thin, water and drug impermeable thin film of butyl rubber is laminated to one side of the film thereby forming a system with a single drug portal. Finally, a number of 6 mm discs, suitable in size for insertion and retention in the eye, are cut from the 0.6 mm thick film. These discs have a portal with a surface area of […]. Osmotic bursting devices are the invention of Michaels and Gulloid as described in United States Patent Application Ser. No. 578,979 filed on May 19, 1975.
The release of drug from the ocular therapeutic system is determined by placing the systems in a simulated ocular aqueous environment. The outermost drug depots imbibs water through the sole exposed surface, swell, and burst their enclosing membranes, releasing their drug from the reservoir and exposing innermost depots. The amount of drug released in this rate controlled osmotic system is monitored by a UV spectrometer set at 215 nanometer wavelength. A relatively rapid release of pilocarpine nitrate begins to be noticed. The release continues for about 22 hours at a rate gradually decreasing from an initial 400 micrograms per hour to about 250 micrograms per hour after 22 hours. After 22 hours, the release rate falls rapidly.

[5] = cited from earlier work
[6] = parameters: species or system New Zealand white rabbits; settings: rabbit, in vivo
Method: After the ocular systems were in the cul-de-sac 24 hours, they were removed, and a tear sample collected for measuring its pilocarpine content. Then, the systems were returned to the cul-de-sac for one-half hour, the rabbits sacrificed, and an aqueous humor sample immediately withdrawn for measuring the pilocarpine content thereof.
The sutures thus placed, restricted the movement of the ocular systems so that lateral and vertical movement of the ocular systems could not exceed a distance of more than 2 mm. Tear samples were collected and processed in the same way as were tear samples from ocular systems releasing 20 and 40 micrograms per hour.
A second set of ocular systems were used in these experiments and they were manufactured with a size and shape that corresponded to the above ocular systems, except that these latter systems were unireleasing ocular systems. That is, the ocular systems released pilocarpine from a single portal. […] These systems were positioned in the cul-de-sac, with the portal oriented towards the sclera, and tears and aqueous humor samples were taken and analyzed for their pilocarpine content as described above. […]
Selection of an ocular drug receptor site for administering a drug thereto can be easily ascertained by following the above procedures. […] For example, the physiological effect can be determined by measuring ocular pressure and increased vision. […]

[7] = Example 16, single portal osmotic system

Compound: O=C(N[C@H](CO)[C@H](O)c1ccc([N+](=O)[O-])cc1)C(Cl)Cl [chloramphenicol]
Discomfort or irritation in the eye [1]: no discomfort or irritation

Compound: C[C@]12CCC(=O)C=C1CC[C@@H]1[C@@H]2[C@@H](O)C[C@@]2(C)[C@H]1CC[C@]2(O)C(=O)CO [hydrocortisone alcohol]
Drug release rate for the ethylene-vinyl acetate copolymer film [2]: about 40 micrograms per hour

Aqueous concentrations of osmotic system compared with diffusional systems [3]: substantially similar
Duration of release ([4]; Example 16, release rate falls rapidly thereafter): about 22 hours
Release rate after 22 hours [4, 7]: about 250 micrograms per hour
Release rate, initial [4, 7]: 400 micrograms per hour
Compound: CC[C@@H]1C(=O)OC[C@@H]1Cc1cncn1C [pilocarpine nitrate]
Solubility in water [5]: about 25%

Aqueous humor pilocarpine concentration increase per 5 μg/hr increase in rate of release per portal [3]: 0.4 μg/ml per 5 μg/hr
Mean aqueous humor pilocarpine concentration with palpebral delivery relative to bulbar delivery [3]: 11%
Absorption and transfer into aqueous humor from bulbar side relative to palpebral side [6]: at least 10 times
Compound: CC[C@@H]1C(=O)OC[C@@H]1Cc1cncn1C [pilocarpine]
